Measurements taken from the supplement of paper PMC11451515.

Test system: P12-Ichikawa
Test: cell viability relative to DMSO control; higher = less cytotoxic
Settings: 48 h
Method in brief: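 Viability, reported as a per-plate percentage of DMSO wells with cell-free wells as background, came from CellTiter-Glo One luminescence. Reading took place after 48 h at 37°C. Before that, NOMO1 or SEM (500 cells/well) or P12-Ichikawa (1000 cells/well) leukemia cells, adapted for at least four passages in each medium, were seeded in 1536-well plates (5 μl) and pin-dosed with library compounds in DMSO, 47 μM to 0.79 nM over 11 threefold points.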

[1] = HPLM + 10% dialyzed FBS, 0.000781 µM
[2] = HPLM + 10% dialyzed FBS, 0.00234 µM
[3] = HPLM + 10% dialyzed FBS, 0.00702 µM
[4] = HPLM + 10% dialyzed FBS, 0.0211 µM
[5] = HPLM + 10% dialyzed FBS, 0.0632 µM
[6] = HPLM + 10% dialyzed FBS, 0.19 µM
[7] = HPLM + 10% dialyzed FBS, 0.569 µM
[8] = HPLM + 10% dialyzed FBS, 1.71 µM
[9] = HPLM + 10% dialyzed FBS, 5.12 µM
[10] = HPLM + 10% dialyzed FBS, 15.4 µM
[11] = HPLM + 10% dialyzed FBS, 46.1 µM
[12] = RPMI 5 mM glucose + 10% FBS, 0.000781 µM
[13] = RPMI 5 mM glucose + 10% FBS, 0.00234 µM
[14] = RPMI 5 mM glucose + 10% FBS, 0.00702 µM
[15] = RPMI 5 mM glucose + 10% FBS, 0.0211 µM
[16] = RPMI 5 mM glucose + 10% FBS, 0.0632 µM
[17] = RPMI 5 mM glucose + 10% FBS, 0.19 µM
[18] = RPMI 5 mM glucose + 10% FBS, 0.569 µM
[19] = RPMI 5 mM glucose + 10% FBS, 1.71 µM
[20] = RPMI 5 mM glucose + 10% FBS, 5.12 µM
[21] = RPMI 5 mM glucose + 10% FBS, 15.4 µM
[22] = RPMI 5 mM glucose + 10% FBS, 46.1 µM
[23] = RPMI 5 mM glucose + 10% dialyzed FBS, 0.000781 µM
[24] = RPMI 5 mM glucose + 10% dialyzed FBS, 0.00234 µM
[25] = RPMI 5 mM glucose + 10% dialyzed FBS, 0.00702 µM
[26] = RPMI 5 mM glucose + 10% dialyzed FBS, 0.0211 µM
[27] = RPMI 5 mM glucose + 10% dialyzed FBS, 0.0632 µM
[28] = RPMI 5 mM glucose + 10% dialyzed FBS, 0.19 µM
[29] = RPMI 5 mM glucose + 10% dialyzed FBS, 0.569 µM
[30] = RPMI 5 mM glucose + 10% dialyzed FBS, 1.71 µM
[31] = RPMI 5 mM glucose + 10% dialyzed FBS, 5.12 µM
[32] = RPMI 5 mM glucose + 10% dialyzed FBS, 15.4 µM
[33] = RPMI 5 mM glucose + 10% dialyzed FBS, 46.1 µM

SMILES	cell viability [1]	cell viability [2]	cell viability [3]	cell viability [4]	cell viability [5]	cell viability [6]	cell viability [7]	cell viability [8]	cell viability [9]	cell viability [10]	cell viability [11]	cell viability [12]	cell viability [13]	cell viability [14]	cell viability [15]	cell viability [16]	cell viability [17]	cell viability [18]	cell viability [19]	cell viability [20]	cell viability [21]	cell viability [22]	cell viability [23]	cell viability [24]	cell viability [25]	cell viability [26]	cell viability [27]	cell viability [28]	cell viability [29]	cell viability [30]	cell viability [31]	cell viability [32]	cell viability [33]
CCc1ccc(/C=C2/SC(=S)NC2=O)cc1	84.2%	87.7%	79.6%	88.1%	90.9%	80.1%	91.5%	84%	85.3%	60%	88.1%	82.4%	84.6%	76%	88.9%	82.8%	77.7%	85.1%	87.3%	84.8%	46.1%	87.9%	77.4%	83.8%	81.7%	81.2%	87.1%	76.6%	87.3%	83.5%	81.9%	38.1%	90.4%
CN1CC(=O)N2[C@H](c3ccc4c(c3)OCO4)c3[nH]c4ccccc4c3C[C@@H]2C1=O	100%	99.2%	100%	97.9%	104%	96.6%	101%	91.6%	89.9%	89.6%	78.8%	92.4%	96.8%	90.4%	92.6%	95%	103%	90%	94.1%	82.7%	96.9%	79.6%	89.8%	92%	92.6%	89.6%	90.9%	92.1%	85.1%	87%	83.6%	81%	78.5%
